In the METLIN SMRT retention time set (Domingo-Almenara et al. 2019):

Test: gradient 5% acetonitrile 3 min, to 50% in 2 min, to 85% in 15 min, held 3 min, 100 µL/min
Settings: column: Zorbax Extend-C18 2.1 x 50 mm; eluents: water / acetonitrile, 0.1% formic acid
How it was run: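 Retention times come from adduct peaks that were picked computationally and then checked by hand. The standards, pure and pooled in mixtures of ~100 molecules, were run on a Zorbax Extend-C18 column (2.1 × 50 mm, 1.8 μm) at 100 μL/min with water and acetonitrile, each with 0.1% formic acid. Detection was by quadrupole time-of-flight mass spectrometry in positive and negative ionization mode, with a dead volume of 40 μL and a dwell volume of 900 μL.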

| Compound | RP-LC retention time [s] |
| --- | --- |
| O=C(Cc1nnc(-c2ccccc2)o1)NCc1ccncc1 | 566 |
| CC(C)NC(=O)CN1C(=O)COc2ccc(C(=O)N3CCc4ccccc4C3)cc21 | 744 |
| CCOc1ccc(NC(=O)c2cnc3c(c2)c(=O)n(C)c(=O)n3-c2ccccc2)cc1 | 904 |
| O=C(Cn1cnc2cc3c(cc21)OCCO3)Nc1ccc2c(c1)OCCO2 | 623 |
| Cn1nnc2ccc(-c3noc(-c4ccccc4Br)n3)cc21 | 1030 |
| CCc1nc2cc(-c3noc(-c4cccnc4)n3)ccc2o1 | 912 |
| O=C(NCc1ccco1)C1CCCN(S(=O)(=O)c2c[nH]c(C(=O)N3CCCCCC3)c2)C1 (stereo not drawn) | 771 |
| Fc1ccc(C2Cn3nnc(-c4nc(-c5ccccc5Cl)no4)c3CO2)cc1 (stereo not drawn) | 1170 |
| CCc1ccc(NS(=O)(=O)c2cc(-c3[nH]ncc3C(=O)N3CCCCC3)oc2C)cc1 | 822 |
| COc1cc(OC)c(NC(=O)C2CCCN(c3ncnc4c3nc3n4CCCCC3)C2)cc1Cl (stereo not drawn) | 862 |
| O=C(CNc1ccccc1)Nc1nc(-c2ccccc2)cs1 | 637 |
| COC(=O)c1ccc(-c2nc3cnccn3c2Nc2cccc(OC)c2)cc1 | 846 |
| CC(C)CC(=O)N1CCCC1c1nc2ccccc2s1 (stereo not drawn) | 887 |
| O=c1c2sccc2n(Cc2nc(-c3ccccc3)no2)c(=O)n1-c1ccccc1F | 969 |
| c1ccc(-c2nc3cc(-c4noc(-c5ccc6nc[nH]c6c5)n4)ccc3o2)cc1 | 888 |
| CCc1ccccc1NC(=O)c1cn(CC2CCCO2)cc2c(=O)n(-c3ccccc3)nc1-2 (stereo not drawn) | 1060 |
| CCc1ccc(S(=O)(=O)Nc2cccc(-c3cn4c(C)cccc4n3)c2)cc1 | 667 |
| c1cc(-c2cnn3cc(-c4ccc(OCCN5CCCCC5)cc4)cnc23)ccn1 | 584 |
| Cc1ccc(-n2nccn2)c(C(=O)N2CCN(c3nc4cc(Cl)ccc4o3)CC[C@H]2C)c1 | 1080 |
| CC(C)CN1CCN(C(=O)c2cn(-c3cc(N4CCC(C)CC4)ncn3)cn2)CC1 | 663 |
| COc1ccc(C2CC(=O)c3cnc(N4CCN(c5ccccn5)CC4)nc3C2)cc1OC (stereo not drawn) | 633 |
| CC(C)CN1C(=O)c2cccn2CC1C(=O)NC1CCCCC1 (stereo not drawn) | 797 |

| Compound | RP-LC retention time [s] |
| --- | --- |
| NC(=O)C1CCN(C(=O)c2ccc3c(c2)CCN3S(=O)(=O)c2ccc(Cl)cc2)CC1 | 711 |
| COc1ccc(CNC(=O)N2c3ccccc3CC2c2nc(C(C)C)no2)cc1 (stereo not drawn) | 1000 |
| Fc1ccc(OCc2nc(-c3ccc(-c4csc(C5CC5)n4)cc3)no2)cc1 | 1330 |
| COc1ccccc1CNC(=O)C1CCc2nc(N3CCOCC3)ncc2C1 (stereo not drawn) | 719 |
| CN1C(=O)[C@H]2CN(Cc3ccc(OC(F)(F)F)cc3)C[C@H]2C1=O | 666 |
| COc1ccc(-c2ccnc3nc(C4CC4)nn23)cc1 | 805 |
| CCc1ccc(NC(=O)N2CCc3nc(C)ncc3C2)cc1 | 695 |
| CN1CCN(C(=O)c2cc3n(n2)CC(C)(C(=O)NCc2ccc(F)cc2)N(C)C3=O)CC1 (stereo not drawn) | 576 |
| Cc1ccc(CNC(=O)c2ccc(NC(=O)C3CC3)cc2N2CCOCC2)o1 | 768 |
| Cc1c(Cl)cccc1NC(=O)Cn1cnc2nc(N3CCOCC3)ncc2c1=O | 678 |
| FC(F)(F)Oc1ccccc1CN1CCC[C@H]1c1nc(C2CCOCC2)n[nH]1 | 597 |
| Cc1ccc(N2C(=O)N(Cc3cccc(F)c3)S(=O)(=O)c3cccnc32)cc1 | 1080 |
| CCOc1ccc(CCNC(=O)C2CCCN2C(=O)OCc2ccccc2)cc1OCC (stereo not drawn) | 890 |
| CC(C)C(=O)NCCC1CCN(C(=O)Nc2cc(F)ccc2F)CC1 | 742 |
| CC1=NS(=O)(=O)N(C)C=C1C(=O)OCc1ccc(C#N)cc1 | 842 |
| Oc1cc2c(cc1O)C(c1ccccc1)CNCC2 (stereo not drawn) | 585 |
| Cc1cccc(-c2ncccc2CNS(=O)(=O)c2cccc(C#N)c2)c1 | 700 |
| Cc1onc(-c2cccnc2)c1C(=O)Nc1ccc(Br)cc1F | 798 |
| Cc1ccsc1C(=O)Nc1nnc(SCc2nnc(-c3ccc4c(c3)OCO4)o2)s1 | 884 |
| O=c1[nH]c(SCc2nnc(Nc3ccccc3)s2)nc2sc3c(c12)CCC3 | 801 |
| CCCn1cc(CCNS(=O)(=O)c2ccc(CC)cc2)c2cccnc21 | 935 |
| Cc1ccc(CNC(=O)C2CCN(CCc3cn(C)c4ncccc34)CC2)cc1 | 615 |

| Compound | RP-LC retention time [s] |
| --- | --- |
| O=C(Nc1ccc(OCc2nnc(-c3ccccc3)o2)cc1)c1ccoc1 | 808 |
| COc1ccc(-c2cc(C(=O)N3CCC(Cc4ccccc4)CC3)no2)cc1 | 1120 |
| COc1cccc(C(=O)N2CCCn3nc(-c4ccc(C)cc4)cc3C2)c1OC | 885 |
| COCCN1CCn2cc(S(=O)(=O)Nc3ccc(C#N)cc3)cc2C1=O | 671 |
| COc1ccccc1OCCN1C(=O)C2(CCOCC2)CC1c1nnnn1C(C)(C)C (stereo not drawn) | 796 |
| COc1ccccc1-c1noc2ncnc(N3CCN(c4ccccn4)CC3)c12 | 646 |
| CCc1ccccc1S(=O)(=O)N1CCC(N2CCN(Cc3ccccc3)C(=O)C2=O)CC1 | 864 |
| Cc1oc(-c2[nH]ncc2C(=O)N2CCCC2)cc1S(=O)(=O)Nc1cccc(Cl)c1 | 741 |
| O=C1N(c2ccc(F)cc2)c2ncccc2S(=O)(=O)N1Cc1cccc(F)c1 | 1030 |
| CC1=C(c2ccc(C)c(C)c2)S(=O)(=O)N=C1N1CCCN(C(=O)C(C)C)CC1 | 854 |
| CCn1cnc2ccc(-c3noc(-c4cccc(F)c4)n3)cc21 | 769 |
| COc1ccccc1C(=O)N1CCc2ccccc2[C@H]1C | 893 |
| CC(=O)NCCn1c(SCC(=O)OCc2ccccc2)nc2ccccc2c1=O | 767 |
| CC1(C(=O)NCc2ccccc2)CCN(S(=O)(=O)c2cccc(C#N)c2)CC1 | 862 |
| COc1ccc(CNS(=O)(=O)c2ccccc2-c2nc(-c3ccc(F)cc3)no2)cc1 | 1160 |
| Cc1scc2nc(C3CCC3)nc(N3CCC(C(=O)NC4CCCCC4)CC3)c12 | 752 |
| CC1CCCN(C(=O)c2cn(-c3cc(N4CCOCC4)ncn3)cn2)C1 (stereo not drawn) | 709 |
| CC(C)n1c(N2CCCN(C(=O)c3cccs3)CC2)cc(=O)n(C(C)C)c1=O | 794 |
| CCOC(=O)c1ccccc1NC(=O)Cn1nc2c(N3CCSCC3)nccn2c1=O | 1010 |
| O=C(Nc1nc2c(s1)CCc1ccccc1-2)c1ccc(S(=O)(=O)N2CCCC2)cc1 | 1110 |
| CCC(C)[C@H](NC(=O)N1C[C@H]2C[C@@H](C1)c1cccc(=O)n1C2)C(=O)OC (stereo partly drawn) | 624 |
| COc1ccc(-c2noc(-c3nc(Cc4cccc(F)c4)no3)n2)cc1OC | 1100 |

| Compound | RP-LC retention time [s] |
| --- | --- |
| O=c1ncn2nc(Sc3ccc(F)cc3F)ccc2c1-c1c(Cl)cccc1Cl | 894 |
| CCc1noc(NC(C)=O)c1-c1ccc(OC)c(S(=O)(=O)Nc2ccc(Cl)cc2F)c1 | 842 |
| O=S(=O)(c1ccccc1Cl)N1CCc2nc(-c3ccc(F)cc3)ncc2C1 | 1100 |
| Cc1ccc(S(=O)(=O)N2CCc3c(c(-c4nnc(-c5ccccc5)o4)nn3C)C2)cc1C | 1020 |
| CC(=O)Nc1ccc(NC(=O)[C@H]2C[C@H]3CCCN3[C@@]23C(=O)N(C)c2ccccc23)cc1 | 572 |
| CCCN1C(=O)c2cc(S(=O)(=O)N(C)Cc3ccccc3)ccc2Oc2cccnc21 | 1190 |
| CCCNC(=O)c1ccc2c(=O)n(Cc3ccc(C)cc3)c(N(CC)CC)nc2c1 | 1060 |
| Clc1cc(Cl)cc(-c2ccc(CNCc3ccncc3)o2)c1 | 649 |
| O=C(Nc1cc(-c2cccs2)no1)c1ccc(F)cc1 | 948 |
| Cc1cc(-c2c(C)sc(C)c2S(=O)(=O)Nc2ccc(C(C)C)cc2)n[nH]1 | 1200 |
| CC(=O)N1CCN(c2ncc(C(=O)Nc3ccccc3)c(N)n2)CC1 | 607 |
| CCc1cccc(NS(=O)(=O)c2cc3n(c2)CCCNC3=O)c1 | 690 |
| CC(=O)N1CCc2ccccc2C1C(=O)NCc1cc(F)cc(F)c1 (stereo not drawn) | 764 |
| CC1SC(C)C(=O)N(CC(=O)NCCc2ccccc2)C1=O (stereo not drawn) | 764 |
| CCc1nc(-c2csc(S(=O)(=O)N3CCCC(C(=O)Nc4cccc(Cl)c4)C3)c2)no1 (stereo not drawn) | 1040 |
| CCCCOc1nc2c(c(=O)n(C)c(=O)n2C)n1C | 874 |
| O=C(CSc1ccc(F)cc1)Nc1ccc2c(c1)CC(=O)N2 | 646 |
| COc1ccc(C(=O)N2CC(n3cc(COCC4CC4)nn3)C2)c(OC)c1 | 705 |
| CCN1C(=O)COc2ccc(-c3nc(NC(=O)C4CCCCC4)sc3C)cc21 | 652 |
| O=C(Nc1ccc2c(c1)OCO2)C(=O)c1c[nH]c2ccccc12 | 890 |
| Cc1ccc(N2CC(c3noc(-c4ccc(OC(F)(F)F)cc4)n3)CC2=O)cc1 (stereo not drawn) | 1170 |
| O=C(NC1CCCCCCC1)C1CCCN(C(=O)Cc2cccc3ccccc23)C1 (stereo not drawn) | 1060 |
